Results reported in US20060167269A1, “Compounds and methods for the inhibition of compounds cruzi” (priority 2001, published 2006).
“And” between values parts separate entries of the source, which are not always exact repeats. Equal values may be shown once. Read-outs that look alike come from different tables or passages of the source.

Columns and labels:
C. glabrata = experiment: Candida broth dilution assay, C. glabrata; format: cell-based; settings: 80% growth inhibition, 24 h
Description: (§1) The compound JJ119 was tested for anti-Candida activity in a standard assay, as described below, against a number of strains of fungus. The assay compared inhibition (the effective dose causing 80% growth inhibition of the fungus) of several strains of Candida spp. using Fluconazole and compound JJ 119 (R^3 is CH3, all other variable substituents are H) of the present invention (see Table I, above).
(§2) The Candida assay followed the “Reference method for broth dilution antifungal susceptibility testing of yeasts; approved standard”, NCCLS, June, 1997. The procedure was modified to a 96 well format (as described in Modifications section 3.8). The methodology employed deviated from the approved method by reading results at 24 h rather than 48 h (since cultures of the ATCC strains were generally dense by 24 h).
(§3) In general, Candida were inoculated at a density of 2×10^3/ml in RPMI based medium in the presence of drugs at the following concentrations: 50 uM, 10 uM, 2 uM, 0.4 uM, and 0 uM. Cells were incubated at 34° C. for 24 hr and growth inhibition was scored visually for turbidity. All drugs were diluted in DMSO (except fluconazole which was diluted in water). Top concentration of DMSO in the cultures was 0.25%; DMSO alone at 0.5% was not inhibitory to C. albicans.

C. albicans = experiment: Candida broth dilution assay, C. albicans; format: cell-based; settings: 80% growth inhibition, 24 h
Description: as §1, §2, §3

[1] = system: T. cruzi (Tulahuen strain); experiment: T. cruzi growth on monolayers of mouse 3T3 fibroblasts; format: cell-based, Trypanosoma cruzi
Description: (§4) Compounds which appear in Table 1, below were tested […] using the Tulahuen strain of T. cruzi. See Buckner, et al., Antimicrobial Agents and Chemotherapy, 40, 2592-2597 (1996). In this assay, trypomastigotes were grown on monolayers of mouse 3T3 fibroblasts as previously described by Van Voorhis, et al., J. Exp. Med. 169: 641-652 (1989). […] The assay also tested for inhibition of fibroblast growth (an indication of potential toxicity). In virtually all instances, the compounds were non-toxic in the assay. In Table 1, if a substituent is left blank, such a substituent is defined as a hydrogen. [drawing 5]

mouse 3T3 fibroblasts = experiment: inhibition of fibroblast growth (indication of potential toxicity); format: cell-based; settings: inhibition of 3T3 fibroblast growth
Description: as §4

[2] = incubation in murine serum (ester hydrolysis); format: in vitro ADME, mouse; settings: 30 minutes of incubation
From the text: The blood serum esterase levels of mice is very high, and it was thought that eliminating the ester group would increase the bioavailability of the aminobiphenyl over the ester.

[3] = system: T. cruzi trypomastigotes (Tulahuen); experiment: anti-T. cruzi activity in infected mice; format: in vivo, mouse
Description: FIGS. 3A and B represent mouse data for compound JJ121. FIG. 3A represents Parasite levels and FIG. 3B represents Survival for treated and control mice. Mice were dosed orally at 50 mg/kg twice daily on days 1-10. They were infected with T. cruzi trypomastigotes (Tulahuen) 2×10^3 SQ at day 0. Parasitemia was quantified microscopically on a small drop of tail blood at 400×.
Despite this apparent stability, however, the results for anti-T. cruzi activity in infected mice is much better for JJ121 than for JJ37. […] All mice receiving JJ121 survive past 100 days, whereas the vehicle mice all die by day 20.

C. tropicalis = experiment: Candida broth dilution assay, C. tropicalis; format: cell-based; settings: 80% growth inhibition, 24 h
Description: as §1, §2, §3

C. krusei = experiment: Candida broth dilution assay, C. krusei; format: cell-based; settings: 80% growth inhibition, 24 h
Description: as §1, §2, §3

Candida spp. = experiment: Candida broth dilution assay; format: cell-based
Description: as §1, §2, §3

C. parapsilosis = experiment: Candida broth dilution assay, C. parapsilosis; format: cell-based; settings: 80% growth inhibition, 24 h
Description: as §1, §2, §3

[4] = read-out: activity against T. cruzi
[5] = drug concentration giving 50% inhibition of T. cruzi growth on 3T3 fibroblasts, read-out: EC50 T. cruzi

In the case of `OC(Cn1cncn1)(Cn1cncn1)c1ccc(F)cc1F` [Fluconazole], the ED80 (C. glabrata; C. glabrata strain 1) is reported as 104.5 μM and (32) μg/ml, the ED80 (C. glabrata; C. glabrata strain 2) is reported as 6.528 μM and (2) μg/ml and the ED80 (C. glabrata; C. glabrata strain 3) is reported as 208.9 μM and (64) μg/ml. It also gave an ED80 (C. albicans; C. albicans strain 1) of 6530 nM.
`COC(=O)c1ccc(NCc2cncn2Cc2ccc(C#N)cc2)cc1-c1ccccc1` [JJ20] gave an EC50 [1, 4] of 40 nM and an EC50 (mouse 3T3 fibroblasts) of over 10000 nM.
Work on `COC(=O)c1ccc(NCc2cncn2Cc2ccccc2)cc1-c1ccccc1` [JJ21] yielded an EC50 [1, 5] of 80 nM and an EC50 (mouse 3T3 fibroblasts) of over 10000 nM.
`N#Cc1ccc(Cn2cncc2CNc2ccc(C(=O)O)c(-c3ccccc3)c2)cc1` [JJ28] gave an EC50 [1, 4] of 1000 nM and an EC50 (mouse 3T3 fibroblasts) of over 10000 nM.
For `COC(=O)c1ccc(NCc2cncn2Cc2ccc(-c3ccccc3)cc2)cc1-c1ccccc1` [JJ37], the “species found after incubation in murine serum” value [2] was “the ester is the only species”, the EC50 ([1]; read-out: activity against T. cruzi amastigotes) was 0.5 nM and the EC50 (mouse 3T3 fibroblasts) was over 10000 nM. For the same compound, the “activity in mouse models” value ([3]; infected mice) was “shows activity in mouse models, but much less than that of JJ121”.
`COC(=O)c1ccc(NCc2cncn2Cc2ccc([N+](=O)[O-])cc2)cc1-c1ccccc1` [JJ51, p-NO2-imid-BP-COOMe] gave an EC50 [1, 5] of 100 nM and an EC50 (mouse 3T3 fibroblasts) of over 10000 nM.
Compound `COC(=O)c1ccc(NCc2cncn2Cc2ccc(C)cc2)cc1-c1ccccc1` [JJ52, p-CH3-imid-BP-COOMe] has an EC50 [1, 5] of 5 nM and an EC50 (mouse 3T3 fibroblasts) of over 10000 nM.
For `COC(=O)c1ccc(NCc2cncn2Cc2ccc(Cl)cc2)cc1-c1ccccc1` [JJ53, p-Cl-imid-BP-COOMe], the EC50 [1, 5] was 5 nM and the EC50 (mouse 3T3 fibroblasts) was over 10000 nM.
Compound `COC(=O)c1ccc(NCc2cncn2Cc2ccc(Br)cc2)cc1-c1ccccc1` [JJ57, p-Br-imid-BP-COOMe] has an EC50 [1, 5] of 20 nM and an EC50 (mouse 3T3 fibroblasts) of over 10000 nM.
In the case of `COC(=O)c1ccc(NCc2cncn2Cc2ccc(N)cc2)cc1-c1ccccc1` [JJ58, p-NH2-imid-BP-COOMe], the EC50 [1, 5] is reported as 250 nM and the EC50 (mouse 3T3 fibroblasts) is reported as over 10000 nM.
With `N#Cc1ccc(Cn2cncc2CNc2cccc(-c3ccccc3)c2)cc1` [JJ73] the EC50 [1, 5] was 50 nM.
Compound `COC(=O)c1ccc(NCc2cncn2Cc2cccc([N+](=O)[O-])c2)cc1-c1ccccc1` [JJ81, m-NO2-imid-BP-COOMe] has an EC50 [1, 5] of 30 nM and an EC50 (mouse 3T3 fibroblasts) of over 10000 nM.
In the case of `COC(=O)c1ccc(NCc2cncn2Cc2cccc(C)c2)cc1-c1ccccc1` [JJ82, m-CH3-imid-BP-COOMe], the EC50 [1, 5] is reported as 20 nM and the EC50 (mouse 3T3 fibroblasts) is reported as over 10000 nM.
Compound `COC(=O)c1ccc(NCc2cncn2Cc2cccc(N)c2)cc1-c1ccccc1` [JJ83, m-NH2-imid-BP-COOMe] has an EC50 [1, 5] of 130 nM and an EC50 (mouse 3T3 fibroblasts) of over 10000 nM.
In the case of `COC(=O)c1ccc(NCc2cncn2Cc2cccc(Cl)c2)cc1-c1ccccc1` [JJ84, m-Cl-imid-BP-COOMe], the EC50 [1, 5] is reported as 20 nM and the EC50 (mouse 3T3 fibroblasts) is reported as over 10000 nM.
For `COC(=O)c1ccc(NCc2cncn2Cc2cccc(Br)c2)cc1-c1ccccc1` [JJ85, m-Br-imid-BP-COOMe], the EC50 [1, 5] was 20 nM and the EC50 (mouse 3T3 fibroblasts) was over 10000 nM.
`COC(=O)c1ccc(NCc2cncn2Cc2cccc(C#N)c2)cc1-c1ccccc1` [JJ97, m-CN-imid-BP-COOMe] showed an EC50 [1, 5] of 100 nM and an EC50 (mouse 3T3 fibroblasts) of over 10000 nM.
Work on `COC(=O)c1ccc(NCc2cncn2Cc2ccccc2C)cc1-c1ccccc1` [JJ101, o-CH3-imid-BP-COOMe] yielded an EC50 [1, 5] of 1000 nM.
Compound `COC(=O)c1ccc(NCc2cncn2Cc2ccccc2Br)cc1-c1ccccc1` [JJ102, o-Br-imid-BP-COOMe] has an EC50 [1, 5] of 100 nM.
In the case of `COC(=O)c1ccc(NCc2cncn2Cc2ccccc2C#N)cc1-c1ccccc1` [JJ103, o-CN-imid-BP-COOMe], the EC50 [1, 5] is reported as 200 nM and the EC50 (mouse 3T3 fibroblasts) is reported as over 10000 nM.
In the case of `COC(=O)c1ccc(NCc2cncn2Cc2cccc(C(F)(F)F)c2)cc1-c1ccccc1` [JJ104], the EC50 [1, 5] is reported as 40 nM and the EC50 (mouse 3T3 fibroblasts) is reported as over 10000 nM.
For `COC(=O)c1ccc(NCc2cncn2Cc2ccccc2N)cc1-c1ccccc1` [JJ105, o-NH2-imid-BP-COOMe], the EC50 [1, 5] was 5 nM and the EC50 (mouse 3T3 fibroblasts) was over 10000 nM.
With `COC(=O)c1ccc(NCc2cncn2Cc2ccccc2Cl)cc1-c1ccccc1` [JJ117] the EC50 (mouse 3T3 fibroblasts) was over 10000 nM.
`O=[N+]([O-])c1ccc(Cn2cncc2CNc2cccc(-c3ccccc3)c2)cc1` [JJ118, p-NO2-imid-BP] showed an EC50 [1, 5] of 100 nM.
In the case of `Cc1ccc(Cn2cncc2CNc2cccc(-c3ccccc3)c2)cc1` [JJ119, p-CH3-imid-BP], the ED80 (C. tropicalis; C. tropicalis strain 1) is reported as over 100000 nM, the ED80 (C. tropicalis; C. tropicalis strain 2 (first line so named, r25)) is reported as over 100000 nM and the ED80 (C. tropicalis; C. tropicalis strain 2 (second line so named, r27)) is reported as over 100000 nM. The ED80 (C. krusei; C. krusei strain 1) was 25000 nM, the ED80 (C. krusei; C. krusei strain 2) was 50000 nM and the ED80 (C. krusei; C. krusei strain 3) was 25000 nM. For the same compound, the ED80 (C. glabrata; C. glabrata strain 1) was 12.5 µM, the ED80 (C. glabrata; C. glabrata strain 2) was 6.25 µM and the ED80 (C. glabrata; C. glabrata strain 3) was 25 µM. For the same compound, the EC50 [1, 5] was 100 nM, the anti-Candida activity (Candida spp.) was “favorable anti-Candida activity” and the ED80 (C. parapsilosis; C. parapsilosis strain 1) was 100000 nM and 50000 nM. For the same compound, the ED80 (C. parapsilosis; C. parapsilosis strain 2) was 25000 nM and 12500 nM, the ED80 (C. albicans; C. albicans strain 1) was 12500 nM and the ED80 (C. albicans; C. albicans strain 2) was 12500 nM. The ED80 (C. albicans; C. albicans strain 3) was 6250 nM.
With `Clc1ccc(Cn2cncc2CNc2cccc(-c3ccccc3)c2)cc1` [JJ120, p-Cl-imid-BP] the EC50 [1, 5] was 80 nM and the anti-Candida activity (Candida spp.) was “exhibited activity”.
For `c1ccc(-c2ccc(Cn3cncc3CNc3cccc(-c4ccccc4)c3)cc2)cc1` [JJ121, p-Ph-imid-BP], the “reduced activity compared with JJ37” value [1] was 20 fold, the IC50 ([1]; T. cruzi) was 10 nM and the EC50 [1, 5] was 10 nM. For the same compound, the survival ([3]; mice, oral 50 mg/kg twice daily on days 1-10, vehicle mice all die by day 20) was over 100 days and the “parasite level in mouse blood” value ([3]; mice, oral 50 mg/kg twice daily, within 45 days) was “dramatic suppression of parasite from mouse blood”.
`CCOC(=O)c1ccc(NCc2cncn2Cc2ccc(-c3ccccc3)cc2)cc1-c1ccccc1` [JJ128] showed an EC50 [1, 5] of 10 nM and an EC50 (mouse 3T3 fibroblasts) of over 10000 nM.
`CC(C)OC(=O)c1ccc(NCc2cncn2Cc2ccc(-c3ccccc3)cc2)cc1-c1ccccc1` [JJ129] gave an EC50 [1, 5] of 50 nM and an EC50 (mouse 3T3 fibroblasts) of over 10000 nM.
Compound `O=C(OC1CCCCC1)c1ccc(NCc2cncn2Cc2ccc(-c3ccccc3)cc2)cc1-c1ccccc1` [JJ130] has an EC50 [1, 5] of 10 nM and an EC50 (mouse 3T3 fibroblasts) of over 10000 nM.
`c1ccc(-c2ccc(Cn3cncc3CNc3ccc(-c4cc5ccccc5o4)c(-c4ccccc4)c3)cc2)cc1` [JJ138] gave an EC50 [1, 5] of 100 nM and an EC50 (mouse 3T3 fibroblasts) of over 10000 nM.
Compound `c1ccc(-c2ccc(Cn3cncc3CNc3ccc(-c4noc5ccccc45)c(-c4ccccc4)c3)cc2)cc1` [JJ141] has an EC50 [1, 5] of 10 nM and an EC50 (mouse 3T3 fibroblasts) of over 10000 nM.
